# Results taken from patent publication US20030181515A1, “Methods of using kavalactone compositions” (Kava Pharmaceuticals, Inc., a Delaware corporation, priority 2001, published 2003).
# Entries after “also recorded” stand apart in the source; their conditions may differ.
# Tested on: IL-12
# Test: IL-12 inhibitory assay in IFNγ-primed, LPS-stimulated human PBMC (ELISA)
# Format: cell-based
# Conditions: human PBMC primed with IFNγ, supernatants 20 h later, FIG. 1
# Experimental: This invention is based in part on the unexpected discovery that specific kavalactones inhibit production of IL-12, whose overproduction is implicated in a number of diseases and disease symptoms. The IL-12 inhibitory activity of six major kavalactones (e.g., desmethoxyyangonin, dihydrokawain, dihydromethysticin, kawain, methysticin, and yangonin) was measured using a cellular assay for determination of IL-12 cytokine inhibition. […] Thus, compositions containing one of the three active kavalactones, kawain, dihydrokawain, dihydromethysticin, or a combination thereof, are useful for treating disease or disease symptoms related to IL-12 overproduction.
# Referring back to FIG. 1, six kavalactones were tested in an IL-12 inhibitory assay as follows: Lipopolysaccharide (LPS, Serratia marscencens) was obtained from Sigma (St. Louis, Mo.). Human recombinant IFNg was purchased from Boehringer Mannheim. (Mannheim, Germany). Human peripheral blood mononuclear cells were isolated by centrifugation using Ficall-Paque (Pharmacia Biotech, Uppsala, Sweden) and prepared in RPMI medium supplemented with 10% FCS and antibiotics in a 96-well plate with 1×10^6 cells/well. Human PBMC were primed with IFNγ (30 U/mL) for 16 h and then stimulated with […] of LPS in the presence of different concentrations of test compound. Cell-free supernatants were taken 20 h later for measurement of cytokines. Cell viability was assessed using the bioreduction of MTS [3-(4,5-dimethylthiazol-2-yl)-5-(3-carboxymethoxyphenyl)-2-(4-sulfophenyl)-2H-tetrazolium] (Promega, Madison, Wis.). Cell survival was estimated as the ratio of the absorbance in compound-treated groups versus compound-free control. Human IL-12 was assayed using ELISA kits (Endogen, Cambridge, Mass.), essentially according to the manufacturer's instructions. IL-12 inhibition can also be measured by other methods (e.g., in vivo, in vitro, animal models) of assaying for enzyme inhibition activity.
row,SMILES,IL-12 inhibitory activity
1,COC1=CC(=O)O[C@@H](CCc2ccccc2)C1 [dihydrokawain],much higher IL-12 inhibitory activity relative to the other kavalactones; also recorded: exhibit IL-12 inhibitory activity
2,COC1=CC(=O)O[C@@H](/C=C/c2ccccc2)C1 [kawain],much higher IL-12 inhibitory activity relative to the other kavalactones; also recorded: exhibit IL-12 inhibitory activity
3,COC1=CC(=O)O[C@@H](CCc2ccc3c(c2)OCO3)C1 [dihydromethysticin],much higher IL-12 inhibitory activity relative to the other kavalactones; also recorded: exhibit IL-12 inhibitory activity
